Earlier results in US6399592B1, “Bishphosphonate/estrogen synergistic therapy for treating and preventing bone loss” (Merck & Co., Inc., priority 1992, dated 2002).

Key:
[1] = tested on: bone loss in ovaricetomized rats; conditions: in combination with estrogen
[2] = tested on: bone mineralization; conditions: rats; long term

SMILES	effect on bone loss [1]	effects on bone mineralization [2]
O=P([O-])(O)C(O)(Cc1cccnc1)P(=O)(O)O.[Na+] [risendronate, sodium trihydrogen [1-hydroxy-2-(3-pyridinyl)ethylidene]bisphosphonate]	positive effect on bone loss	
CC(O)(P(=O)([O-])O)P(=O)([O-])O.[Na+].[Na+] [etidronate, (1-hydroxyethylidene)bisphosphonic acid, disodium salt]		long term adverse effects on bone mineralization
